Assay [1] has as its system MCF7-Y537S cells (MCF7 ER-alpha Y537S mutant). Description: In vitro proliferation (viability) assay, CellTiter-Glo, MCF7-Y537S cells. Type of assay: cell-based. Conditions: Homo sapiens; MCF7-Y537S cells, 6 days, CTG vs day 0; mean ± SD-type spread (n); read-out: GI50 MUT (Y537S). How it is done:
(§1) MCF7 BUS cells (Coser, et al., (2003) PNAS 100(24): 13994-13999) were maintained in Dulbecco's Modified Eagle Medium supplemented with 10% FBS, 4 mM L-glutamine and 1× non-essential amino acids. Lenti-X 293T cells (Clontech, Cat #632180) were routinely cultured in Dulbecco's Modified Eagle Medium supplemented with 10% FBS.
(§2) The QuikChange II XL Site-Directed Mutagenesis Kit (Agilent Technologies, Cat #200523) was used to generate Y537S, Y537C, Y537N and D538G mutations within the ERα exon 8. Wild-type ESR1 cDNA (GeneCopoeia Inc., Cat #GC-A0322, accession no. NM 000125) was used as a template with the following mutagenesis primers (where the underlined nucleotides represent site mutations); Y537S: F-AAGAACGTGGTGCCCCTCTCTGACCTGCTGCTGGAGATG (SEQ ID NO: 1), R-CATCTCCAGCAGCAGGTCAGAGAGGGGCACCACGTTCTT (SEQ ID NO: 2); Y537N: F-AAGAACGTGGTGCCCCTCAATGACCTGCTGCTGGAGATG (SEQ ID NO: 3), R-CATCTCCAGCAGCAGGTCATTGAGGGGCACCACGTTCTT (SEQ ID NO: 4); Y537C: F-AAGAACGTGGTGCCCCTCTGTGACCTGCTGCTGGAGATG (SEQ ID NO: 5), R-CATCTCCAGCAGCAGGTCACAGAGGGGCACCACGTTCTT (SEQ ID NO: 6); D538G: F-AACGTGGTGCCCCTCTATGGCCTGCTGCTGGAGATGCTG (SEQ ID NO: 7), R-CAGCATCTCCAGCAGCAGGCCATAGAGGGGCACCACGTT (SEQ ID NO: 8). WT and mutant ESR1 cDNAs were cloned into the designation lentiviral vector pLenti6.3/V5-Dest (Invitrogen, Cat #V533-06). To make lentivirus, DNAs (WT and mutant ESR1) were co-transfected with packaging plasmids into Lenti-X 293T cells using TransIT (Mirus, Cat #MIR 2700). 48 h post-transfection, virus containing media was filtered and added to MCF7 cells in the presence of 8 µg/ml polybrene overnight. Two days following infection, cells were placed under selection with 10 μg/ml blasticidin for 2 weeks for stable expression.
(§3) MCF7-WT and -Y537S cells were seeded at 1500 cells/well in black-walled 96-well plates (assay plates, Costar, Cat #3904). In parallel, cells were also seeded in a separate 96-well plate (8 wells/cell line, control plate) for which a CTG (CellTiter-Glo® Luminescent Viability Assay, Promega, Cat #G7572) was measured the following day (day 0 reading). The day 0 reading was used for the GI50 calculation at the termination of the experiment. The day following seeding, compounds were added to assay plates. Briefly, a 1:4 serial dilution was prepared in DMSO at 200× final concentration for a total of 10 concentrations (9 dilutions containing compound and one is DMSO only). Serially diluted compounds were pipetted into medium to prepare a compound-medium mix at 10× final concentration. 10 μl of compound-medium mix was added to MCF7-WT and -Y537S cells at 3 wells/concentration (triplicate for each concentration). On day 3, media/compound was removed and replaced with fresh media/compound as described above. On day 6, CTG was measured and compared to day 0 readings from control plate to assess GI50.
For orientation: Cellular ATP, detected with luciferase, serves as a proxy for viable cell number.

For assay [2], the system named is MCF7-WT cells (MCF7 ER-alpha wildtype). Nature of the assay: In vitro proliferation (viability) assay, CellTiter-Glo, MCF7-WT cells. Conditions: Homo sapiens; MCF7-WT cells, 6 days, CTG vs day 0; mean ± SD-type spread (n); read-out: GI50 WT. The class given is cell-based. How it is done:
as §1, §2, §3

In the case of `CC/C(=C(/c1ccc(OCCNC/C=C/C(=O)N(C)C)cc1)c1ccc2[nH]nc(F)c2c1)c1ccccc1` [Compound 2, (E)-4-((2-(4-((E)-1-(3-fluoro-1H-indazol-5-yl)-2-phenylbut-1-en-1-yl)phenoxy)ethyl)amino)-N,N-dimethylbut-2-enamide], the GI50 in assay [1] was found to be 64.8 ± 37.2 nM; in assay [2], 5.56 ± 2.84 nM.
Consider `CC/C(=C(/c1ccc(OCCNC/C=C/C(=O)N(C)C)cc1)c1ccc2[nH]nc(F)c2c1)c1cc(F)cc(C(F)(F)F)c1` [Compound 3, (E)-4-((2-(4-((E)-1-(3-fluoro-1H-indazol-5-yl)-2-(3-fluoro-5-(trifluoromethyl)phenyl)but-1-en-1-yl)phenoxy)ethyl)amino)-N,N-dimethylbut-2-enamide], for which the results for the concentration for 50% growth inhibition (GI50) in assay [1] and in assay [2] were 159 ± 91.8 nM and 6.95 ± 2.47 nM, respectively.
In the case of `CC/C(=C(/c1ccc(OCCNC/C=C/C(=O)N(C)C)cc1)c1ccc2[nH]ncc2c1F)c1ccccc1` [Compound 4, (E)-4-((2-(4-((E)-1-(4-fluoro-1H-indazol-5-yl)-2-phenylbut-1-en-1-yl)phenoxy)ethyl)amino)-N,N-dimethylbut-2-enamide], the concentration for 50% growth inhibition (GI50) in assay [1] was found to be 36.3 ± 16 nM; in assay [2] it was 4.55 ± 3.34 nM.
On to `CC/C(=C(/c1ccc(OCCNC/C=C/C(=O)N(C)C)cc1)c1ccc2[nH]ncc2c1)c1cc(F)cc(F)c1` [Compound 5, (E)-4-((2-(4-((E)-2-(3,5-difluorophenyl)-1-(1H-indazol-5-yl)but-1-en-1-yl)phenoxy)ethyl)amino)-N,N-dimethylbut-2-enamide], for which the concentration for 50% growth inhibition (GI50) in assay [1] stood at 81.4 ± 45.8 nM; in assay [2], 8.44 ± 3.87 nM.
The matching figures for `CC/C(=C(/c1ccc(OCCNC/C=C/C(=O)N(C)C)cc1)c1ccc2[nH]ncc2c1)c1ccc(F)c(F)c1` [Compound 6, (E)-4-((2-(4-((E)-2-(3,4-difluorophenyl)-1-(1H-indazol-5-yl)but-1-en-1-yl)phenoxy)ethyl)amino)-N,N-dimethylbut-2-enamide]: 111 ± 124 nM and 2.93 ± 2.83 nM.
As to `CC/C(=C(/c1ccc(OCCNC/C=C/C(=O)N(C)C)cc1)c1ccc2[nH]ncc2c1)c1cc(F)cc(Cl)c1` [Compound 7, (E)-4-((2-(4-((E)-2-(3-chloro-5-fluorophenyl)-1-(1H-indazol-5-yl)but-1-en-1-yl)phenoxy)ethyl)amino)-N,N-dimethylbut-2-enamide], the GI50 in assay [1] was found to be 74.1 ± 55.2 nM; in assay [2], 1.92 nM.
Regarding `C#CCN(C)C(=O)/C=C/CNCCOc1ccc(/C(=C(/CC)c2ccccc2)c2ccc3[nH]ncc3c2)cc1` [Compound 8, (E)-4-((2-(4-((E)-1-(1H-indazol-5-yl)-2-phenylbut-1-en-1-yl)phenoxy)ethyl)amino)-N-methyl-N-(prop-2-yn-1-yl)but-2-enamide], the GI50 in assay [1] stood at 22.3 nM; in assay [2], 1.59 nM.
For the compound `C#CCCN(C)C(=O)/C=C/CNCCOc1ccc(/C(=C(/CC)c2ccccc2)c2ccc3[nH]ncc3c2)cc1` [Compound 9, (E)-4-((2-(4-((E)-1-(1H-indazol-5-yl)-2-phenylbut-1-en-1-yl)phenoxy)ethyl)amino)-N-(but-3-yn-1-yl)-N-methylbut-2-enamide], the values for the GI50 in assay [1] and in assay [2] were 118 nM and 5.57 nM, respectively.
Regarding `CC/C(=C(/c1ccc(OCCNC/C=C/C(=O)N2CCC2)cc1)c1ccc2[nH]ncc2c1)c1ccccc1` [Compound 10, (E)-4-((2-(4-((E)-1-(1H-indazol-5-yl)-2-phenylbut-1-en-1-yl)phenoxy)ethyl)amino)-1-(azetidin-1-yl)but-2-en-1-one], the GI50 in assay [1] is 21.2 ± 17.2 nM; in assay [2], 2.22 ± 2.34 nM.
The like results for `CC/C(=C(/c1ccc(OCCNC/C=C/C(=O)N2CCCC2)cc1)c1ccc2[nH]ncc2c1)c1ccccc1` [Compound 11, (E)-4-((2-(4-((E)-1-(1H-indazol-5-yl)-2-phenylbut-1-en-1-yl)phenoxy)ethyl)amino)-1-(pyrrolidin-1-yl)but-2-en-1-one] were, in that order, 14 nM and 0.76 nM.
For `CC/C(=C(/c1ccc(OCCNC/C=C/C(=O)N2CCCCC2)cc1)c1ccc2[nH]ncc2c1)c1ccccc1` [Compound 12, (E)-4-((2-(4-((E)-1-(1H-indazol-5-yl)-2-phenylbut-1-en-1-yl)phenoxy)ethyl)amino)-1-(piperidin-1-yl)but-2-en-1-one], the 50% growth inhibitory concentration (GI50) in assay [1] turned out to be 36.7 nM; in assay [2], 1.69 nM.
For the compound `CN(C)C(=O)/C=C/CNCCOc1ccc(/C(=C(\c2ccccc2)C2CCC2)c2ccc3[nH]ncc3c2)cc1` [Compound 13, (E)-4-((2-(4-((E)-2-cyclobutyl-1-(1H-indazol-5-yl)-2-phenylvinyl)phenoxy)ethyl)amino)-N,N-dimethylbut-2-enamide], the GI50 was 20 ± 13.7 nM in assay [1] and 2.08 ± 1.57 nM in assay [2].
As to `CN(C)C(=O)/C=C/CNCCOc1ccc(/C(=C(\c2ccccc2)C2CCC2)c2ccc3[nH]nc(F)c3c2)cc1` [Compound 14, (E)-4-((2-(4-((E)-2-cyclobutyl-1-(3-fluoro-1H-indazol-5-yl)-2-phenylvinyl)phenoxy)ethyl)amino)-N,N-dimethylbut-2-enamide 2,2,2-trifluoro acetate], the results for the 50% growth inhibitory concentration (GI50) in assay [1] and in assay [2] were 30.7 ± 4.02 nM and 2.46 ± 1.43 nM, respectively.
For `CC/C(=C(/c1ccc(OCCNC/C=C/C(=O)N2CCOCC2)cc1)c1ccc2[nH]ncc2c1)c1ccccc1` [Compound 15, (E)-4-((2-(4-((E)-1-(1H-indazol-5-yl)-2-phenylbut-1-en-1-yl)phenoxy)ethyl)amino)-1-morpholinobut-2-en-1-one], the GI50 in assay [1] stood at 25.5 ± 13.8 nM; in assay [2], 1.84 ± 1.09 nM.
Regarding `CC/C(=C(/c1ccc(OCCNC/C=C/C(=O)N(C)CC)cc1)c1ccc2[nH]ncc2c1)c1ccccc1` [Compound 16, (E)-4-((2-(4-((E)-1-(1H-indazol-5-yl)-2-phenylbut-1-en-1-yl)phenoxy)ethyl)amino)-N-ethyl-N-methylbut-2-enamide], the GI50 is 21.9 nM in assay [1] and 1.66 nM in assay [2].
For `CCCN(C)C(=O)/C=C/CNCCOc1ccc(/C(=C(/CC)c2ccccc2)c2ccc3[nH]ncc3c2)cc1` [Compound 17, (E)-4-((2-(4-((E)-1-(1H-indazol-5-yl)-2-phenylbut-1-en-1-yl)phenoxy)ethyl)amino)-N-methyl-N-propylbut-2-enamide], the figures for the GI50 in assay [1] and in assay [2] were 25.2 nM and 2.18 nM, respectively.
As to `CC/C(=C(/c1ccc(OCCNC/C=C/C(=O)N(C)CCO)cc1)c1ccc2[nH]ncc2c1)c1ccccc1` [Compound 18, (E)-4-((2-(4-((E)-1-(1H-indazol-5-yl)-2-phenylbut-1-en-1-yl)phenoxy)ethyl)amino)-N-(2-hydroxyethyl)-N-methylbut-2-enamide], the 50% growth inhibitory concentration (GI50) in assay [1] stood at 21.4 ± 15 nM; in assay [2], 1.63 ± 1.41 nM.
With `CC/C(=C(/c1ccc(OCCNC/C=C/C(=O)N(C)C)cc1)c1ccc2[nH]nc(F)c2c1)c1ccc(F)cc1Cl` [Compound 19, (E)-4-((2-(4-((E)-2-(2-chloro-4-fluorophenyl)-1-(3-fluoro-1H-indazol-5-yl)but-1-en-1-yl)phenoxy)ethyl)amino)-N,N-dimethylbut-2-enamide], the 50% growth inhibitory concentration (GI50) worked out at 18.6 nM in assay [1] and 1.58 nM in assay [2].
The matching figures for `CC/C(=C(/c1ccc(OCCNC/C(C)=C/C(=O)N(C)C)cc1)c1ccc2[nH]ncc2c1)c1ccccc1` [Compound 21, (E)-4-((2-(4-((E)-1-(1H-indazol-5-yl)-2-phenylbut-1-en-1-yl)phenoxy)ethyl)amino)-N,N,3-trimethylbut-2-enamide]: 154 ± 51.7 nM and 26.6 ± 21.8 nM.

In general, GI50 refers to the concentration that inhibits growth by half.

These data come from patent publication US10851065B2 (Eisai R&D Management Co., Ltd., priority 2015, dated 2020).
